Assays:
Podosphaera fuliginea = assay: Antifungal activity against Podosphaera fuliginea infected compound-pre-treated cucumber seedlings at 300 ppm incubated for 2 days prior to infection measured after 4 days relative to buthiobate; assay type: functional
Rhizoctonia solani = assay: Antifungal activity against Rhizoctonia solani infected compound-pre-treated rice seedlings at 300 ppm incubated for 2 days prior to infection measured after 4 days relative to diclomezine; assay type: functional

Q: For `C[Si](C)(C)CC(C#N)(Cn1cncn1)c1cccc(Cl)c1` (centres undefined), which Activity_index (Podosphaera fuliginea) is on record?
A: 2

Q: And the Activity_index (Rhizoctonia solani)?
A: 0

Q: With `C[Si](C)(CC(C#N)(Cn1cncn1)c1cccc(Oc2ccccc2)c1)c1ccccc1` (centres undefined) as the molecule, how does the Activity_index (Podosphaera fuliginea) read?
A: 0

Q: What about the Activity_index (Rhizoctonia solani) of the same molecule?
A: 0

Q: Which results are given for `C[Si](C)(C)CC(C#N)(Cn1cncn1)c1ccccc1Cl` (centres undefined)?
A: Activity_index (Podosphaera fuliginea): 0; Activity_index (Rhizoctonia solani): 2

Q: Which Activity_index (Podosphaera fuliginea) does the source give for `C[Si](C)(CC(C#N)(Cn1cncn1)c1ccccc1)c1ccccc1` (centres undefined) here?
A: 2

Q: And the Activity_index (Rhizoctonia solani)?
A: 0

Q: For `C[Si](C)(C)CC(C#N)(Cn1cncn1)c1ccc(Cl)c(Cl)c1` (centres undefined), which Activity_index (Podosphaera fuliginea) is on record?
A: 2

Q: And the Activity_index (Rhizoctonia solani)?
A: 0

Q: How did the Activity_index (Podosphaera fuliginea) turn out when `C[Si](C)(C)CC(C#N)(Cn1cncn1)c1ccc(F)cc1` (centres undefined) was run?
A: 0

Q: What about the Activity_index (Rhizoctonia solani) of the same molecule?
A: 2

Q: With `C[Si](C)(C)CC(C#N)(Cn1cncn1)c1ccc(Cl)cc1Cl` (centres undefined) as the molecule, how does the Activity_index (Podosphaera fuliginea) read?
A: 2

Q: And the Activity_index (Rhizoctonia solani)?
A: 2

Q: How did the Activity_index (Podosphaera fuliginea) turn out when `C[Si](C)(C)CC(C#N)(Cn1cncn1)c1ccc(Cl)cc1` (centres undefined) was run?
A: 0

Q: What about the Activity_index (Rhizoctonia solani) of the same molecule?
A: 2

Q: For `COc1ccc(C(C#N)(Cn2cncn2)C[Si](C)(C)C)cc1` (centres undefined), which Activity_index (Podosphaera fuliginea) is on record?
A: 2

Q: And the Activity_index (Rhizoctonia solani)?
A: 2

Q: Which Activity_index (Podosphaera fuliginea) does the source give for `Cc1ccc(C(C#N)(Cn2cncn2)C[Si](C)(C)C)cc1` (centres undefined) here?
A: 2

Q: What about the Activity_index (Rhizoctonia solani) of the same molecule?
A: 0

Q: `C[Si](C)(C)CC(C#N)(Cn1cncn1)c1ccccc1` (centres undefined) was tested. Which Activity_index (Podosphaera fuliginea) did it give?
A: 2

Q: And the Activity_index (Rhizoctonia solani)?
A: 2

Q: With `C[Si](C)(CC(C#N)(Cn1cncn1)c1ccc(Cl)cc1)c1ccccc1` (centres undefined) as the molecule, how does the Activity_index (Podosphaera fuliginea) read?
A: 2

Q: What about the Activity_index (Rhizoctonia solani) of the same molecule?
A: 0

Reference: ChEMBL document CHEMBL3044581, “Synthesis and fungicidal activities of silicon-containing derivatives of 2-aryl-3-(1H-1,2,4-triazol-1-yl)propanenitriles” (2001)
